Entries after “also recorded” stand apart in the source; their conditions may differ.
What was measured:
[1] = system: capsaicin-induced neuropathic pain; experiment: Effect on capsaicin in development of mechanical allodynia (von Frey filaments); assay type: in vivo; conditions: mice, test compound given before 1 μg capsaicin (1% DMSO) injected into paw, FIG. 2
Description: Effect on Capsaicin in Development of Mechanical Allodynia
This model uses the von-Frey Filaments and is a model to test the effects or symptoms of neuropathic pain, allodynia etc.
Interest of the model: • The injection of 1 μg of capsaicin to experimental animals produces acute pain followed by hyperalgesia/allodynia • The mechanisms involved in capsaicin-induced acute pain and hyperalgesia are relatively well known (mainly activation of peripheral nociceptors and sensitization of spinal cord neurons, respectively)
After habituation mice were according to FIG. 1 first treated with the test-compound (or solvent in controls). Then 1 μg capsaicin (1% DMSO) is injected into their paw resulting in developing pain in the effected paw. The effected paw is then treated with a mechanical stimulus and the latency time before the paw is withdrawn is measured.

[2] = system: morphine analgesia; experiment: Tail-flick test in mice, modulation of morphine analgesia; assay type: in vivo; conditions: male CD1 mice; Example n^o 1 5-20 mg/kg i.p. coadministered with fixed dose of morphine 2 mg/kg s.c.; 30 min post-administration; FIG. 3

Cc1cc(OCCN2CCOCC2=O)nn1-c1ccc2ccccc2c1 [Example n^o 1, 4-(2-(5-methyl-1-(naphthalen-2-yl)-1H-pyrazol-3-yloxy)ethyl)morpholin-3-one]
analgesia in capsaicin-induced neuropathic pain (latency time before the paw is withdrawn, mechanical stimulus) [1]: dose dependency of the treatment with the compound of example 1 showing analgesia in capsaicin-induced neuropathic pain
potentiation of morphine analgesia (% Analgesia, tail-flick latency) [2]: enhances the analgesic effect of a fixed dose of morphine; also recorded: dose-dependently increased the analgesic efficacy of morphine

Source: patent US8729073B2, “5-methyl-1-(naphthalen-2-yl)-1H-pyrazole derivatives and their use in potentiating the effect of opioid analgesics” (Laboratorios Del Dr. Esteve, S.A., priority 2010, dated 2014)
